Measured values: US20210268062A1, “INFLAMMATORY SKIN DISORDER TREATMENT” (NOVAPEP PTY LTD, priority 2018, published 2021)

How the values were obtained:
Akt = assay: Induction of Akt activation in keratinocytes (phosphorylation of Ser473); format: cell-based; settings: with PAR-1 inhibitor
Experimental: Briefly, cells are washed three times with PBS and lysed with lysis buffer (0.15 M NaCl, 0.01 mM PMSF, 1% NP-40, 0.02 M Tris, 6 M urea/H2O). Cell lysates are centrifuged at 10,000 g for 15 minutes and supernatants are separated by 10% sodium-dodecyl-sulphate polyacrylamide-gel electrophoresis (SDS-PAGE) and transferred to a PDVF membrane. The primary antibodies used are as follows against pan or phospho specific forms of Akt, GSK3β, ERK1/2. Immunoreactivity is detected by using the ECL detection system (Amersham Biosciences, Buckinghamshire, UK). Anti-human (3-actin (Sigma-Aldrich) antibody is included to normalize for unequal loading. Protein band intensity is evaluated by densitometry by ImageQuant™ LAS 4000 (GE Healthcare Life Sciences).
To confirm activation of Akt by TR47, Akt-mediated inactivation of GSK3β via phosphorylation at Ser9 is determined. GSK3β is a well-known downstream substrate for Akt.

p-AKT = p-AKT ELISA in AE.Hy926 cells treated with PAR1 peptide and/or thrombin; format: cell-based, human; set-up: pAKT compared to adding thrombin alone: dose or concentration left out as unconfirmed
Experimental: AE.Hy926 cells (ATCC® CRL-2922′), the human umbilical vein cell line, established by fusing primary human umbilical vein cells with a thioguanine-resistant clone of A549 by exposure to polyethylene glycol (PEG), were cultured in Dulbecco's Modified Eagle's Medium (DMEM, high glucose) containing 10% fetal bovine serum (FBS) in 75 sq cm flasks. When cells reached confluence, they were trypsinzed and seeded into 48 well plates at 1×10^4 viable cells/well for 2 days to reach complete confluency. Before treatment, cells were preincubated with DMEM medium (no FBS) for 2 hrs, then switched to fresh DMEM and treated with: • PAR1 12mer peptide (shown on graphs as PAR1) (or scrambled control (SC) of PAR1 peptide) • thrombin
either alone or at different combinations for 1 hr. After treatment, media were discarded and 100 μl lysis buffer was added to each wells and cell lysates were collected and stored in −40° C. for ELISA.
Human p-GSK and p-AKT were measured using ELISA Dueset kits (R&D Systems) according to manufacturers' instructions.

CC(C)c1ccc(Cn2ccc3c4c(N)nc(NC5CC5)nc4ccc32)cc1 [SCH79797]
dependence of Akt activation on PAR-1 (Akt): activation of Akt is dependent on PAR-1

NPNDKYEPFWED (listed as Homo sapiens) [PAR1 peptide, PAR1 12mer peptide]
Akt activity (p-AKT; PAR1 peptide added 15 mins before or after thrombin, FIG. 8B): enhance the Akt activity
activation of Akt as determined by phosphorylation of Ser473 (p-AKT; PAR1 peptide, after 1 hour, AE.Hy926 cells): induced robust activation of Akt
pAKT (p-AKT; higher concentrations, eg 10 nM thrombin in the presence of peptide): significantly enhanced pAKT
pAKT compared to adding thrombin alone (p-AKT; lower doses of thrombin and PAR1 peptide added together simultaneously, FIG. 8A): increased pAKT

thrombin
phosphorylation of AKT (p-AKT; thrombin alone at 0.1 and 0.25 nM, FIG. 8A): inhibited phosphorylation of AKT
